According to patent US11306064B2, “Benzothia(di)azepine compounds and their use as bile acid modulators” (Albireo AB, priority 2018, dated 2022):

Legend:
[1] = Bioavailability studies in mice; type: in vivo; conditions: mouse; C57BL/6 mice; single intravenous dose 1 mg/kg vs single oral dose 10 mg/kg; plasma LC-MS/MS
Experimental: C57BL/6 mice of 8-9 weeks old were used. For each test compound, two groups of 3 animals each were used. One group was administered a single intravenous dose of 1 mg/kg (vehicle 100% DMSO) through the tail vein and the other group was administered a single oral dose of 10 mg/kg through gavage needle. The group that was administered an oral dose was fasted overnight. Blood samples were collected after 0.083, 0.25, 0.5, 1, 2, 4, 6, 8 and 24 hours following intravenous administration, and after 0.25, 0.5, 1, 2, 4, 6, 8 and 24 hours following oral administration. Blood samples were taken from saphenous vein. 0.2% EDTA was used as the anticoagulant. The samples were analyzed by a discovery grade bioanalytical method developed for the estimation of test compound in plasma, using an LC-MS/MS system.

Human LBAT = molecular target: T1, Human LBAT (Homo sapiens, UniProt Q14973); assay: LBAT (h/m) assay: 3H-taurocholic acid uptake in human LBAT-overexpressing cells; type: cell-based; conditions: 0.3 μM 3H-taurocholic acid and 7.5 μM cold taurocholic acid, 20 minutes, read-out: hLBAT IC50
T1 construct: expressed in transfected cells; kept under Geneticin selection
T1 sequence (Q14973 1-349): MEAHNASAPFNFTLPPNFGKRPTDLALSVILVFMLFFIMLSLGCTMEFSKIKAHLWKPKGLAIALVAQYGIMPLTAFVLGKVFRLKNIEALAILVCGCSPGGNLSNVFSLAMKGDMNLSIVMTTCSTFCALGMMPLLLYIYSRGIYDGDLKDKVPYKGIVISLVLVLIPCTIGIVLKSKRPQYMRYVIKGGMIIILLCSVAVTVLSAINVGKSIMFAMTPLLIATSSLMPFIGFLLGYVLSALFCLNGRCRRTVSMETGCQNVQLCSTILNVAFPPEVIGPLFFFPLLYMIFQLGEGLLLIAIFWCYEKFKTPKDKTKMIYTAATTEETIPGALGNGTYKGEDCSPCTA
How it was run: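 LBAT-overexpressing cells, serum-free MEM-alpha, 20 min at 37° C with inhibitor (3-fold, 10-point) plus 0.3 μM 3H-taurocholic acid and cold taurocholic acid (7.5 μM human; 25 μM mouse), 0.2% DMSO. Stopped on ice, washed with 1 mM unlabelled taurocholate; uptake by scintillation counting.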

HepaRG cells = assay: HepaRG-based assay: 3H-taurocholic acid uptake in differentiated HepaRG cells; type: cell-based; conditions: Homo sapiens, HepaRG, 0.3 μM 3H-taurocholic acid and 7.5 μM cold taurocholic acid, 30 minutes
How it was run: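 Differentiated HepaRG cells cultured 7 days post-seeding were exposed for 30 min at 37 °C to 0.3 μM 3H-taurocholic acid plus 7.5 μM cold taurocholic acid with inhibitor (3-fold dilutions, 0.2% DMSO). Uptake was stopped on ice, washed with 1 mM unlabelled taurocholic acid, and counted by scintillation.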

Human ASBT = molecular target: T2, Human ASBT (Homo sapiens, UniProt Q12908); assay: ASBT (h/m) assay: 3H-taurocholic acid uptake in human ASBT-overexpressing cells; type: cell-based; conditions: 0.25 μM 3H-taurocholic acid and 5 μM cold taurocholic acid, 20 minutes, read-out: hASBT IC50
T2 construct: expressed in transfected cells; kept under Puromycin selection
T2 sequence (Q12908 1-348): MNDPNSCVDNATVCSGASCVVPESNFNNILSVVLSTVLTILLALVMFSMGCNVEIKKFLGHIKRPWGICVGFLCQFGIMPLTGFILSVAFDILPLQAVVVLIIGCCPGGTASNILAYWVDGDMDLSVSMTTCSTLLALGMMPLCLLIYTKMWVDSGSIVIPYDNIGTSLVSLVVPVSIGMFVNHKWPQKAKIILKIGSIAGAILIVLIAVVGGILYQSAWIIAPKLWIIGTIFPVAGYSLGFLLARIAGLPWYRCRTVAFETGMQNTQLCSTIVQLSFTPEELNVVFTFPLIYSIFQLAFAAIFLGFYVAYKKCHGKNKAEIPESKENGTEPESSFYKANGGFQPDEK
How it was run: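 ASBT-overexpressing cells, seeded 48 h earlier, took up 0.25 µM 3H-taurocholic acid plus 5 µM cold taurocholate for 20 min at 37 °C with inhibitor (10-point 3-fold series, top 10 µM, 0.2% DMSO). Ice stop, washes with cold 1 mM taurocholate in HEPES-HBSS pH 7.4, scintillation counting.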

| SMILES | bioavailability [1] [%] | IC50 (Human LBAT) [nM] | IC50 (HepaRG cells) [nM] | IC50 (Human ASBT) [nM] |
| --- | --- | --- | --- | --- |
| CCCCC1(CC)CN(c2ccccc2)c2cc(SCC)c(O/C=C(\F)C(=O)O)cc2S(=O)(=O)C1 (stereo not drawn) [Example 72, (Z)-3-((3-butyl-3-ethyl-7-(ethylthio)-1,1-dioxido-5-phenyl-2,3,4,5-tetrahydro-1,5-benzothiazepin-8-yl)oxy)-2-fluoroacrylic Acid] | – | 13 | 319 | 76 |
| CCCCC1(CC)CN(c2ccccc2)c2cc(SCC)c(O/C=C/C(=O)O)cc2S(=O)(=O)C1 (stereo not drawn) [Example 73, (E)-3-((3-butyl-3-ethyl-7-(ethylthio)-1,1-dioxido-5-phenyl-2,3,4,5-tetrahydro-1,5-benzothiazepin-8-yl)oxy)acrylic Acid] | – | 120 | 766 | 155 |
| CCCCC1(CCCC)CN(c2ccccc2)c2cc(SC)c(O/C=C(\C)C(=O)O)cc2S(=O)(=O)N1 [Example 74, (E)-3-((3,3-dibutyl-7-(methylthio)-1,1-dioxido-5-phenyl-2,3,4,5-tetrahydro-1,2,5-benzothiadiazepin-8-yl)oxy)-2-methylacrylic Acid] | – | 649 | 3380 | 57 |
| CCCCC1(CCCC)CN(c2ccc(C(=O)NC(C)(C)C)cc2)c2cc(SC)c(O/C=C(\F)C(=O)O)cc2S(=O)(=O)C1 [Example 79, (Z)-3-((3,3-dibutyl-5-(4-(tert-butylcarbamoyl)phenyl)-7-(methylthio)-1,1-dioxido-2,3,4,5-tetrahydro-1,5-benzothiazepin-8-yl)oxy)-2-fluoroacrylic Acid] | – | 8 | 246 | > 1000 |
| CCCCC1(CC)CN(c2ccccc2)c2cc(Br)c(O/C=C/C(=O)O)cc2S(=O)(=O)N1 (stereo not drawn) [Example 87, (E)-3-((7-bromo-3-butyl-3-ethyl-1,1-dioxido-5-phenyl-2,3,4,5-tetrahydro-1,2,5-benzothiadiazepin-8-yl)oxy)acrylic Acid] | – | 220 | 1080 | 157 |
| CCCCC1(CCCC)CN(c2ccc(O)cc2)c2cc(SC)c(O/C=C(\F)C(=O)O)cc2S(=O)(=O)C1 [Example 95, (Z)-3-((3,3-dibutyl-5-(4-hydroxyphenyl)-7-(methylthio)-1,1-dioxido-2,3,4,5-tetrahydro-1,5-benzothiazepin-8-yl)oxy)-2-fluoroacrylic Acid] | – | 77 | 1220 | 17 |
| CCCCC1(CC)CN(c2ccccc2)c2cc(F)c(O/C=C(\F)C(=O)O)cc2S(=O)(=O)C1 (stereo not drawn) [Example 96, (Z)-3-((3-butyl-3-ethyl-7-fluoro-1,1-dioxido-5-phenyl-2,3,4,5-tetrahydro-1,5-benzothiazepin-8-yl)oxy)-2-fluoroacrylic Acid] | – | 231 | 785 | 15 |

Continued, values first:

| bioavailability [1] [%] | IC50 (Human LBAT) [nM] | IC50 (HepaRG cells) [nM] | IC50 (Human ASBT) [nM] | SMILES |
| --- | --- | --- | --- | --- |
| 20 | 4.4 | 325 | – | CCCC[C@@]1(CC)CN(c2ccccc2)c2cc(SC)c(O/C=C(\F)C(=O)O)cc2S(=O)(=O)N1C (single isomer, unassigned) [Example 99] |
| – | 31 | 246 | 673 | CCCCC1(CC)CN(c2ccccc2)c2cc(Br)c(O/C=C(\F)C(=O)O)cc2S(=O)(=O)N1C (stereo not drawn) [Example 106, (Z)-3-((7-bromo-3-butyl-3-ethyl-2-methyl-1,1-dioxido-5-phenyl-2,3,4,5-tetrahydro-1,2,5-benzothiadiazepin-8-yl)oxy)-2-fluoroacrylic Acid] |
| – | 50 | 365 | 59 | CCCCC1(CCCC)CN(c2ccc(F)c(F)c2)c2cc(SC)c(O/C=C(\F)C(=O)O)cc2S(=O)(=O)C1 [Example 107, (Z)-3-((3,3-dibutyl-5-(3,4-difluorophenyl)-7-(methylthio)-1,1-dioxido-2,3,4,5-tetrahydro-1,5-benzothiazepin-8-yl)oxy)-2-fluoroacrylic Acid] |
| – | 5.9 | 447 | 8.5 | CCCCC1(CC)CN(c2ccccc2)c2cc(N(C)C)c(O/C=C(\F)C(=O)O)cc2S(=O)(=O)C1 (stereo not drawn) [Example 108, (Z)-3-((3-butyl-7-(dimethylamino)-3-ethyl-1,1-dioxido-5-phenyl-2,3,4,5-tetrahydro-1,5-benzothiazepin-8-yl)oxy)-2-fluoroacrylic Acid] |
